# Measurements as given in article PMC10099666, “Structure Elucidation, Total Synthesis, Antibacterial In Vivo Efficacy and Biosynthesis Proposal of Myxobacterial Corramycin” (Angewandte Chemie (International Ed. in English), 2022).
# *1 amine or outer side, *2 acyl side, *3 side chain or, on linkers, in order; H or OH if unused. Where a SMILES comes first, the peptide text is derived from it. [ ]: non-standard residue; d: D form. The star is where a group is joined. Ava(2S,3R-(OH)2,4S-OMe) = CO[C@@H](CN[*:1])[C@H](O)[C@H](O)C(=O)[*:2]; dHis(βS-OH,π-Me) = Cn1cncc1[C@@H](O)[C@@H](N)C(=O)O; Butanoyl(2R-OH,3S-OH) = C[C@H](O)[C@@H](O)C(=O)*; Val(3-OH) = CC(C)(O)[C@H](N)C(=O)O; NMeF = CN[C@@H](Cc1ccccc1)C(=O)O
# Key:
# [1] = system: mice infected with E. coli ATCC35218; assay type: in vivo; details: i.v. 20 mg kg^−1 Corramycin in E. coli mouse infection model
# Protocol: As bacterial resistance development in minimal media is thought to be more mimetic to an actual infection in vivo, we decided to test the in vivo efficacy of Corramycin in infected mice, despite the poor FoR experiment results in the rich medium. The mice were first infected intraperitoneally with E. coli ATCC35218 and subsequently treated with different doses of Corramycin ranging from a total of 10 to 30 mg per kg body weight divided into two doses, 1 hour and 3 hours after infection.
# Figure 4 In vivo antibacterial activity of Corramycin in infected mice. A) Colony forming unit (CFU) load of E. coli ATCC35218 in blood 4 hours post infection with 2.10^7 CFU. 5 mice per dose were used. […]; Tienam: Imipenem/Cilastatin treatment (positive control, dark grey bar); Corramycin treatment with different doses (light blue, blue and dark blue bars). B) Survival rate [in %] of 10 mice per dose 3, 6, 24, 48, 72 and 96 hours post infection.
# 13.2 Complementation of SbmA and YejEF in the E. coli deletion mutant […]
# 14.1 Infection of the test animals and treatment with Corramycin in vivo For the in vivo infection and antibiotic treatment experiments a total of 75 male Swiss albino mice, divided into five groups with 15 animals, were used. Before infecting the test animals, the weight of each animal was determined (Suppl. Raw Data 1). […]
# [2] = assay type: in vivo; details: single i.v. bolus 30 mg kg-1, male Swiss mice, LC/MS-MS, three animals per sampling time
# Protocol: However, despite this rapid elimination, the antibacterial effect was strong enough in the animals to achieve survival after a single day of treatment.
# Figure S 71. A) Blood bacteremia experiment. E. coli ATCC35218 CFU load after treatment of infected mice with 10 mg kg-1, 20 mg kg-1 or 30 mg kg-1 Corramycin. B) Survival of the E. coli ATCC35218 infected mice in %, after one day of treatment with either 0.9 % NaCl (negative control), Tienam (15 mg kg-1 Imipenem; positive control) or Corramycin in three different doses (10 mg kg-1, 20 mg kg-1 or 30 mg kg-1).
# 14.2 Corramycin elimination experiment
# Native Corramycin systemic exposure was determined following a single intravenous (30 mg kg-1 expressed as active compound) bolus administration to male Swiss mice. […]
# Lung, brain, kidney, heart and liver were collected at each sampling time (5 min, 0.5, 1, 2, 4, 6, 8 and 24 h post administration) pooled per sampling time, weighed and frozen at -20 °C until analysis. Native Corramycin was quantified in the plasma and tissues using an exploratory LC/MS-MS assay method in Early Bioanalysis Group of Toulouse (Montpellier DSAR Operational Center), France. […] The pharmacokinetic parameters were calculated from the arithmetic mean of the plasma concentrations or the tissue concentrations (lung, brain, kidney, heart and liver) using the program WinNonLin 5.2, non-compartmental models 200 and 201. […]
compound,measurement,setting,value
"CO[C@@H](CNC(=O)[C@H](NC(=O)[C@H](O)[C@H](C)O)[C@H](O)c1cncn1C)[C@H](O)[C@H](O)C(=O)N(C)[C@@H](Cc1ccccc1)C(=O)NCC(=O)N[C@H](C(=O)N[C@@H](CO)C(=O)N[C@H](C(=O)N[C@@H](CC(C)C)C(=O)N[C@@H](CO)C(=O)O)C(C)(C)O)C(C)(C)O [Corramycin] ({Butanoyl(2R-OH,3S-OH)}-[dHis(βS-OH,π-Me)][Ava(2S,3R-(OH)2,4S-OMe)][NMeF]G[Val(3-OH)]S[Val(3-OH)]LS-OH)",Toxic side effects in mice,[1],without toxic side effects
same,Time of plasma concentration above the MIC after i.v. administration,[2],less than 30 minutes
